Experimental data from patent US6593342B1, “Pharmaceutical compositions comprising 2-quinolones” (Laboratoire L. Lafon, priority 1998, dated 2003).

Experiments:
[1] = tested on: HCT-15; experiment: MTT test, HCT-15; format: cell-based; details: Homo sapiens, 10^−5 M, 72 hours, control = 100%, mean ± SEM, read-out: average optical density (MTT), percentage relative to control
Protocol: (§1) The influence of the compounds of formulae (I) and (Ia) on non-clonogenic cells was evaluated with the aid of the MTT calorimetric test.
(§2) The principle of the MTT test is based on the mitochondrial reduction, by the metabolically active live cells, of the yellow-colored product MTT (3-(4,5-dimethylthiazol-2-yl)-2,5-diphenyltetrazolium bromide) to a blue-colored product, formazan. The amount of formazan thus obtained is directly proportional to the amount of live cells present in the culture well(s). This amount of formazan is measured by spectrophotometry.
(§3) The cell lines are maintained as a monolayer culture at 37° C. in stoppered culture dishes containing MEM 25 MM HEPES (Minimum Essential Medium) base medium. This medium is suited to the growth of a range of various mammalian diploid or primary cells. This medium is then supplemented with:
(§4) an amount of 5% of FCS (Foetal Calf Serum) decomplemented at 56° C. for 1 hour,
(§5) 0.6 mg/ml of L-glutamine,
(§6) 200 μg/ml of streptomycin,
(§7) The 12 human cancer cell lines which were used were obtained from the American Type Culture Collection (ATCC, Rockville, Md., USA). These 12 cell lines are:
HTC-15 (code ATCC: CCL-225) and LoVo (code ATCC: CCL-229) which are two colorectal cancers,
(§8) Experimentally: 100 μl of a cell suspension containing 20 000 to 50 000 (depending on the cell type used) cells/ml of culture medium are inoculated in 96-well flat-bottomed multi-well plates and are incubated at 37° C., under an atmosphere comprising 5% CO2 and 70% humidity. After incubation for 24 hours, the culture medium is replaced with 100 μl of fresh medium containing either the various test compounds at concentrations ranging from 10^−5 to 10^−10 M or the solvent used to dissolve the test products (control condition). After incubation for 72 hours under the above conditions, the culture medium is replaced with 100 μl of a yellowish solution of MTT dissolved at a rate of 1 mg/ml in RPMI 1640. The microplates are reincubated for 3 hours at 37° C. and are then centrifuged for 10 minutes at 400×g. The yellowish solution of MTT is removed and the blue formazan crystals formed in the cell are dissolved in 100 μl of DMSO. The microplates are then shaken for 5 minutes. The intensity of the resulting blue coloration, and thus of the conversion of the yellow product MTT into blue formazan by the cells that are still alive at the end of the experiment, is quantified by spectrophotometry using a Dynatech Immunoassay System machine at wavelengths of 570 nm and 630 nm corresponding, respectively, to the maximum absorption wavelengths of formazan and to the background noise. Software incorporated in the spectrophotometer calculates the average optical density values and the standard deviation (SD) and standard error of mean (SEM) values.
(§9) By way of example, the results of the average optical density, expressed as a percentage relative to the average optical density measured under the control condition (set equal to 100%), obtained at a concentration of 10^−5 M on the 12 abovementioned tumor cell lines are given in Table II.

[2] = tested on: T-47D; experiment: MTT test, T-47D; format: cell-based; details: Homo sapiens, T47D, 10^−5 M, 72 hours, control = 100%, mean ± SEM, read-out: average optical density (MTT), percentage relative to control
Protocol: as §1, §2, §3, §4, §5, §6, §7
T-47D (code ATCC: HTB-133) and MCF7 (code ATCC: HTB-22) which are two breast cancers,
as §8, §9

[3] = Determination of the maximum tolerated dose (MTD); details: mouse, in vivo, ip; B6D2F1/Jico mice; single intraperitoneal administration, 2.5 to 160 mg/kg; survival over 14 days
Protocol: 3.—Determination of the Maximum Tolerated Dose (MTD):
The evaluation of the maximum tolerated dose was carried out on 4- to 6-week-old B6D2F1/Jico mice. The compounds were administered intraperitoneally at increasing doses graduating from 2.5 to 160 mg/kg. The value of the MTD (expressed in mg/kg) is determined from the observation of the survival rate of the animals over a 14-day period after a single administration of the product under consideration. The weight change of the animals is also monitored during this period. When the value of the MTD is greater than 160 mg/kg, the MTD value is likened to 160 mg/kg by default.
The results of the estimation of the maximum tolerated dose (MTD) are collated in the following table: […]

COc1ccc(-c2cc3c(OC)cc(OC)cc3[nH]c2=O)cc1 [CRL8246, 5,7-Dimethoxy-3-(4-methoxyphenyl)-1,2-dihydro-2-quinolinone]
viability at 10 µM [1]: 97.2 ± 5.1% | viability at 10 µM [2]: 96 ± 2.6% | MTD at 14 day [3]: > 160 mg/kg

COc1ccc(-c2cc3c(OC)cc(OC)cc3n(CCC#N)c2=O)cc1 [CRL8247, 3-[5,7-Dimethoxy-3-(4-methoxyphenyl)-2-oxo-1,2-dihydro-1-quinolinyl]propanenitrile]
viability at 10 µM [1]: 87.4 ± 2.5% | viability at 10 µM [2]: 58.3 ± 1.4% | MTD at 14 day [3]: > 160 mg/kg

COc1ccc(-c2cc3c(OC)cc(OC)cc3n(CCc3nnn[nH]3)c2=O)cc1 [CRL8256, 1-[2-(1H-1,2,3,4-Tetrazol-5-yl)ethyl]-5,7-dimethoxy-3-(4-methoxyphenyl)-1,2-dihydro-2-quinolinone]
viability at 10 µM [1]: 73.9 ± 3.6% | viability at 10 µM [2]: 77.5 ± 3.6% | MTD at 14 day [3]: > 160 mg/kg

CCN(CC)C(=O)CCn1c(=O)c(-c2ccc(OC)cc2)cc2c(OC)cc(OC)cc21 [CRL8283, N,N-Diethyl-3-[5,7-dimethoxy-3-(4-methoxy-phenyl)-2-oxo-1,2-dihydro-1-quinolinyl]propanamide]
viability at 10 µM [1]: 58.2 ± 4.3% | viability at 10 µM [2]: 81 ± 3.1% | MTD at 14 day [3]: > 160 mg/kg

CCN(CC)C(=O)Cn1c(=O)c(-c2ccc(OC)cc2)cc2c(OC)cc(OC)cc21 [CRL8315, N,N-Diethyl-2-[5,7-dimethoxy-3-(4-methoxy-phenyl)-2-oxo-1,2-dihydro-1-quinolinyl]acetamide]
viability at 10 µM [1]: 87.9 ± 3.3% | viability at 10 µM [2]: 101 ± 2.5% | MTD at 14 day [3]: > 160 mg/kg

COc1ccc(-c2cc3c(OC)cc(OC)cc3n(CCN(C)C)c2=O)cc1 [CRL8316, 1-[2-(Dimethylamino)ethyl]-5,7-dimethoxy-3-(4-methoxyphenyl)-1,2-dihydro-2-quinolinone]
viability at 10 µM [1]: 79.8 ± 2.9% | viability at 10 µM [2]: 68.8 ± 2.4% | MTD at 14 day [3]: > 160 mg/kg
